Laboratory results published in ChEMBL document CHEMBL2086344, “Halicloic acids A and B isolated from the marine sponge Haliclona sp. collected in the Philippines inhibit indoleamine 2,3-dioxygenase” (J Nat Prod, 2012).
Active and inactive are the calls of the source. The rule behind the calls is not given here.

molecular target: T1, Indoleamine 2,3-dioxygenase 1 (Homo sapiens, UniProt P14902); test: Inhibition of recombinant human IDO expressed in Escherichia coli using L-tryptophan as substrate after 60 mins by spectrophotometry
Target sequence in this assay (P14902 whole entry): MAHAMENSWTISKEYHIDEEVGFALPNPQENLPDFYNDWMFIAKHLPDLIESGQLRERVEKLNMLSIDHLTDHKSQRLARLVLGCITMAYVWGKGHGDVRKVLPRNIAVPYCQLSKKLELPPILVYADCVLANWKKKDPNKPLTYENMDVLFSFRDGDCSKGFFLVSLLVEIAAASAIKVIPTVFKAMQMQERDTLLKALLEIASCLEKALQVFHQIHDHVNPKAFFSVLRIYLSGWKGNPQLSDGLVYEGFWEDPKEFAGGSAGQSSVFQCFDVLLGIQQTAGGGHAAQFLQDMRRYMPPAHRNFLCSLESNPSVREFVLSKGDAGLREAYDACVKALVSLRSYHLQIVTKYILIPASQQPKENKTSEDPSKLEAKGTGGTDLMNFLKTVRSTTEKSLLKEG

Row | IC50 | SMILES
1 | 53 µM | CC1(C)CCC[C@]2(C)O[C@H]3CC[C@@]4(C)[C@@H](CC[C@]5(C)[C@@H]4CC[C@]4(C)c6c(C=O)ccc(O)c6C[C@@H]54)[C@]3(C)CC[C@@H]12
2 | 29 µM | CC1=CCC[C@@H](C)[C@]1(C)CC[C@@]1(C)[C@@H]2CC[C@]3(C)[C@H](CC[C@]4(C)c5c(C=O)ccc(O)c5C[C@@H]34)[C@@]2(C)CC[C@@H]1O
3 | 11 µM | CC1=CCC[C@@H](C)[C@]1(C)CC[C@@]1(C)[C@@H]2CC[C@]3(C)[C@H](CC[C@]4(C)c5c(C(O)C(=O)O)ccc(O)c5C[C@@H]34)[C@@]2(C)CC[C@@H]1O (relative stereo)
4 | 10 µM | CC1(C)CCC[C@]2(C)O[C@H]3CC[C@@]4(C)[C@@H](CC[C@]5(C)[C@@H]4CC[C@]4(C)c6c(C(O)C(=O)O)ccc(O)c6C[C@@H]54)[C@]3(C)CC[C@@H]12 (stereo partly drawn) [HALICLOIC ACID A]

molecular target: T1, Indoleamine 2,3-dioxygenase 1; test: Inhibition of recombinant human IDO expressed in Escherichia coli using L-tryptophan as substrate at 200 uM after 60 mins by spectrophotometry
Target sequence in this assay (P14902 whole entry, looked up): as the sequence (P14902 whole entry) above

Row | SMILES | inhibition
5 | O=Cc1ccccc1 | inactive
6 | O=C(O)C(O)c1ccccc1 (stereo not drawn) | inactive
7 | O=C(O)C(O)c1ccc(O)cc1 (stereo not drawn) | inactive
8 | O=Cc1ccc(O)cc1 | inactive
